According to patent US12649733B2, “3,6-diamino-pyridazin-3-yl derivatives, pharmaceutical compositions containing them and their uses as pro-apoptotic agents” (LES LABORATOIRES SERVIER, priority 2019, dated 2026):

Tests used:
[1] = system: hematological malignancies and solid tumors; settings: several hematological malignancies and solid tumors; cited from earlier work
[2] = system: lymphoid malignancies; settings: cited from earlier work
[3] = system: T-ALL patient derived xenograft models; settings: in vivo; cited from earlier work
[4] = system: lymphocyte proliferation; settings: in vitro; cited from earlier work
[5] = mice, animal models of arthritis and lupus; cited from earlier work
[6] = system: allogeneic T-cell; settings: in vitro; cited from earlier work
[7] = system: allogeneic T- and B-cell responses; settings: after skin transplantation; cited from earlier work
[8] = system: MOLT-4 cells; experiment: MOLT-4 cell viability, MTT assay; type: cell-based; settings: Homo sapiens, MOLT-4, 48 h, 48 h exposure
In short: (§1)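 Cells grown in RPMI 1640 with 10% heat-inactivated FBS at 37° C, 5% CO2, exposed 48 h to nine 3.16-fold serial compound dilutions in triplicate. MTT added for 4 h, SDS/HCl solubilisation overnight, absorbance at 540 nm; IC50 by four-parameter fit.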

[9] = target: T1, BCLXL (Homo sapiens, UniProt Q07817, V10N/V9A); experiment: AlphaLISA assay (BIM peptide displacement); type: binding; settings: 20 pM protein, 1 nM peptide
T1 sequence (Q07817 with tags, fused parts or gaps V9A/V10N): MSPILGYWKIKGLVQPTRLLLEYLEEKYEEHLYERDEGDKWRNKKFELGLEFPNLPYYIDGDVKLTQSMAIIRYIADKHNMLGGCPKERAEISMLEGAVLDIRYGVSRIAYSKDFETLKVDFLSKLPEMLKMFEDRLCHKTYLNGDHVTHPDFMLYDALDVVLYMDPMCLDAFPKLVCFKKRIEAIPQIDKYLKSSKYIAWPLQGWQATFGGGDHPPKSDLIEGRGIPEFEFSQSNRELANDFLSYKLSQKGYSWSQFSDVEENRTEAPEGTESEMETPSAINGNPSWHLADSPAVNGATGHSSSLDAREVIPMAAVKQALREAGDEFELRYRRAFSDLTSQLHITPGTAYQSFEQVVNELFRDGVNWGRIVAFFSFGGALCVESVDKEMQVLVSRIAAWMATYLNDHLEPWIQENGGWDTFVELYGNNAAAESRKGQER
In short: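 Competitive displacement of fluorescein-labelled BIM peptide (1 nM) from biotinylated GST-BCL-XL(2-209) (20 pM) in 10 mM HEPES, 150 mM NaCl, 0.05% Tween 20, pH 7.4, 4% DMSO; 11-point dilutions. Overnight at 23° C with acceptor beads, then donor beads 2 h; Alpha signal at 615 nm.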

[10] = target: T2, Bcl-xL protein (Homo sapiens, UniProt Q07817, N197C); experiment: Fluorescence quenching assay (PUMA peptide displacement); type: binding; settings: 1 nM protein, 400 nM peptide, 2 hours at 23° C.; KI determined from IC50
T2 construct: (2-197)[N197C]; His-His (two His8 stretches joined by a Gly/Ala/Ser/Thr linker)
T2 sequence (Q07817 2-197 N197C): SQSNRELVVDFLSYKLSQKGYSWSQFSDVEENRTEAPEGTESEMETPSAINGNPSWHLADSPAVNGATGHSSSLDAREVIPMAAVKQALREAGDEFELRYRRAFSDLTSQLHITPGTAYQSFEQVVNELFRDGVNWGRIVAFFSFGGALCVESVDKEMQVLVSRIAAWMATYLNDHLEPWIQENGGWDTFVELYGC
In short: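 Displacement of a TQ5WS-quencher-labelled PUMA peptide (400 nM) from Cy5-labelled His-tagged Bcl-xL 2-197 N197C (1 nM) raises fluorescence. An 11-point compound dilution was incubated 2 h at 23 °C in HEPES 10 mM, NaCl 150 mM, 0.05% Tween 20, pH 7.4, 5% DMSO. Fluorescence was read at Ex 620/Em 680 nm, and KI was derived from IC50.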

[11] = target: T1, BCLXL; experiment: Fluorescence polarisation assay (PUMA-based probe displacement); type: binding; further: 20 nM protein, 10 nM fluorescent probe
[12] = system: H146 cells; experiment: H146 cell viability, MTT assay; type: cell-based; settings: Homo sapiens, NCI-H146, 48 h, 48 h exposure
In short: as §1

[13] = system: MOLT-4 T-cell Acute Lymphoblastic Leukemia (T-ALL) model; experiment: MOLT-4 xenograft efficacy study (tumor growth inhibition); type: in vivo, female NOD SCID mice; settings: for % TGI (day 17): 3.75 mg/kg, IV, Q3D6; for activity in vivo after intravenous administration: MOLT-4 xenograft
Protocol: The in vivo therapeutic and pharmacodynamic effects of Bcl-xL-targeting small molecules were determined in MOLT-4 T-cell Acute Lymphoblastic Leukemia (T-ALL) model upon intravenous (IV) administration. The tested compounds were formulated in Hydroxypropyl-β-Cyclodextrin 20%/Hydrogen Chloride 25 mM (HPBCD/HCl). MOLT-4 cells (ATCC No. CRL-1582) were cultured in RPMI supplemented with 10% FBS. Cells were re-suspended in 50% matrigel (BD Biosciences) and 0.1 mL containing 5×10^6 cells was subcutaneously inoculated into the right flank of female NOD SCID mice (Charles River). For efficacy studies, when tumors reached the appropriate volume, mice were randomized (8 animals per group) using Easy stat software. Control vehicle (HPBCD/HCl), Example 73 (3.75 or 7.5 mg/kg) or Example 100 (3.75 mg/kg) were injected IV ([…]-[…]). Mice body weight was monitored three times a week and tumor size was measured using electronic calipers. Tumor volume was estimated by measuring the minimum and maximum tumor diameters using the formula: (minimum diameter)^2 (maximum diameter)/2. At the end of the treatment cycle (day 17), tumor growth inhibition was calculated using the formula: [formula] Response was evaluated as follows: CR (Complete Response) if tumor size was ≤25 mm^3 for at least three consecutive measurements, PR (Partial Response) if tumor size was comprised between 25 mm^3 and half of the starting size for at least three consecutive measurements. Mice were sacrificed at the first measurement for which tumor volume exceeded 2000 mm^3 or at the first signs of animal health deterioration. Efficacy of Example 73 and Example 100 on MOLT-4 xenografts is illustrated in Table 5. Treatment was started 12 days post tumor cells inoculation (average size: 214 mm^3). Vehicle (HPBCD/HCl), Example 73 (3.75 and 7.5 mg/kg) or Example 100 (3.75 mg/kg) were dosed IV each 3 days for a total of 6 administrations.

[14] = system: T-ALL (T-cell Acute Lymphoblastic Leukemia) and different types of solid tumors; settings: pre-clinical models of T-ALL and different types of solid tumors; cited from earlier work
[15] = system: MOLT-4; settings: mature T-ALL cell line xenograft model MOLT-4; cited from earlier work

CC1(C)CCC(c2ccc(Cl)cc2)=C(CN2CCN(c3ccc(C(=O)NS(=O)(=O)c4ccc(N[C@H](CCN5CCOCC5)CSc5ccccc5)c(S(=O)(=O)C(F)(F)F)c4)cc3)CC2)C1 [ABT-263]
activity in pre-clinical models [1]: has shown activity | antitumor activity in clinical studies [2]: exhibited objective antitumor activity | activity in T-ALL patient derived xenograft models [3]: promising activity

CN(C)CC[C@H](CSc1ccccc1)Nc1ccc(S(=O)(=O)NC(=O)c2ccc(N3CCN(Cc4ccccc4-c4ccc(Cl)cc4)CC3)cc2)cc1[N+](=O)[O-] [ABT-737]
inhibition of lymphocyte proliferation [4]: potent inhibition of lymphocyte proliferation | disease severity [5]: significant decrease in disease severity | allogeneic T-cell activation, proliferation, and cytotoxicity [6]: prevented allogeneic T-cell activation, proliferation, and cytotoxicity | allogeneic T- and B-cell responses [7]: inhibited allogeneic T- and B-cell responses | activity in T-ALL patient derived xenograft models [3]: promising activity

CNCC#Cc1ccc(OCCCc2sc(N(C)c3cc(C)c(Nc4nc5ccccc5s4)nn3)nc2C(=O)O)c(F)c1 [Example 73, 2-({6-[(1,3-Benzothiazol-2-yl)amino]-5-methylpyridazin-3-yl}(methyl)amino)-5-(3-{2-fluoro-4-[3-(methylamino)prop-1-yn-1-yl]phenoxy]propyl)-1,3-thiazole-4-carboxylic acid]
IC50 [8]: 1.51 nM | IC50 [9]: 0.0077 nM | Ki [10]: 0.0028 nM | Ki [11]: < 1 nM | IC50 [12]: 4.8 nM | % TGI (day 17) [13]: 56.9% | activity in vivo after intravenous administration [13]: active in vivo

CNCCN(C)CC#Cc1ccc(OCCCc2sc(N(C)c3cc(C)c(Nc4nc5ccccc5s4)nn3)nc2C(=O)O)c(F)c1 [Example 74, 2-({6-[(1,3-Benzothiazol-2-yl)amino]-5-methylpyridazin-3-yl}(methyl)amino)-5-{3-[2-fluoro-4-(3-{methyl[2-(methylamino)ethyl]amino}prop-1-yn-1-yl)phenoxy]propyl}-1,3-thiazole-4-carboxylic acid]
IC50 [8]: 6.72 nM | IC50 [9]: 0.074 nM | Ki [10]: 0.0061 nM | Ki [11]: 1.1 nM | IC50 [12]: 6.78 nM | activity in vivo after intravenous administration [13]: active in vivo

Cc1cc(N(C)c2nc(C(=O)O)c(CCCOc3ccc(C#CCN(C)CCO)cc3F)s2)nnc1Nc1nc2ccccc2s1 [Example 76, 2-({6-[(1,3-Benzothiazol-2-yl)amino]-5-methylpyridazin-3-yl}(methyl)amino)-5-[3-(2-fluoro-4-{3-[(2-hydroxyethyl)(methyl)amino]prop-1-yn-1-yl}phenoxy)propyl]-1,3-thiazole-4-carboxylic acid]
IC50 [8]: 2.37 nM | IC50 [9]: 0.077 nM | Ki [11]: < 1 nM | IC50 [12]: 11.3 nM | activity in vivo after intravenous administration [13]: active in vivo

Cc1cc(N(C)c2nc(C(=O)O)c(CCCOc3ccc(C#CCO)cc3F)s2)nnc1Nc1nc2ccccc2s1 [Example 100, 2-({6-[(1,3-Benzothiazol-2-yl)amino]-5-methylpyridazin-3-yl}(methyl)amino)-5-{3-[2-fluoro-4-(3-hydroxyprop-1-yn-1-yl)phenoxy]propyl}-1,3-thiazole-4-carboxylic acid]
IC50 [8]: 12.6 nM | IC50 [9]: 0.032 nM | Ki [11]: 1.6 nM | IC50 [12]: 38.6 nM | % TGI (day 17) [13]: 64.6% | activity in vivo after intravenous administration [13]: active in vivo

CCN(CC)CCNCC(O)CCCN(c1cc(C)c(Nc2nc3ccccc3s2)nn1)c1nc(C(=O)O)c(CCCOc2ccc(C#CCN(C)C)cc2F)s1 (centres unmarked) [Example 170, 2-[[6-(1,3-Benzothiazol-2-ylamino)-5-methyl-pyridazin-3-yl]-[5-[2-(diethylamino)ethylamino]-4-hydroxy-pentyl]amino]-5-[3-[4-[3-(dimethylamino)prop-1-ynyl]-2-fluoro-phenoxy]propyl]thiazole-4-carboxylic acid]
IC50 [8]: 154 nM | IC50 [9]: 0.014 nM | Ki [10]: 0.005 nM | Ki [11]: < 1 nM | IC50 [12]: 156 nM

Cc1cc(N(CCCC(O)CN2CCC(N)CC2)c2nc(C(=O)O)c(CCCOc3ccc(C#CCN(C)C)cc3F)s2)nnc1Nc1nc2ccccc2s1 (centres unmarked) [Example 171, 2-[[5-(4-Amino-1-piperidyl)-4-hydroxy-pentyl]-[6-(1,3-benzothiazol-2-ylamino)-5-methyl-pyridazin-3-yl]amino]-5-[3-[4-[3-(dimethylamino)prop-1-ynyl]-2-fluoro-phenoxy]propyl]thiazole-4-carboxylic acid]
IC50 [8]: 411 nM | IC50 [9]: 0.013 nM | Ki [10]: 0.0035 nM | Ki [11]: < 1 nM | IC50 [12]: 110 nM

Cc1cc(N(CCCC(O)CN2CCNCC2)c2nc(C(=O)O)c(CCCOc3ccc(C#CCN(C)C)cc3F)s2)nnc1Nc1nc2ccccc2s1 (centres unmarked) [Example 172, 2-[[6-(1,3-Benzothiazol-2-ylamino)-5-methyl-pyridazin-3-yl]-(4-hydroxy-5-piperazin-1-yl-pentyl)amino]-5-[3-[4-[3-(dimethylamino)prop-1-ynyl]-2-fluoro-phenoxy]propyl]thiazole-4-carboxylic acid]
IC50 [8]: 160 nM | IC50 [9]: 0.0078 nM | Ki [10]: 0.0026 nM | Ki [11]: < 1 nM | IC50 [12]: 40.2 nM

CN(C)CC#Cc1ccc(OCCCc2sc(N3CCc4cccc(C(=O)Nc5nc6ccccc6s5)c4C3)nc2C(=O)O)c(F)c1 [Example A-1155463]
in vivo activity [14]: exhibited in vivo activity

Cc1c(-c2ccc(N3CCc4cccc(C(=O)Nc5nc6ccccc6s5)c4C3)nc2C(=O)O)cnn1CC12CC3CC(CC(C3)C1)C2 [Example A-1331852]
in vitro and in vivo activity [15]: in vitro and in vivo activity | in vivo activity [14]: exhibited in vivo activity
